# Reference: US10716313B2, “Ampicillin resistant texturizing lactic acid bacteria strains” (Chr. Hansen A/S, priority 2012, dated 2020)
# Tested on: Lactobacillus delbrueckii subsp. bulgaricus
# Assay: Ampicillin growth reduction (OD600) in MRS broth
# Type: cell-based
# Details: at least 20 hours at 37° C., stated as typical
# Experimental: In order to isolate ampicillin resistant mutants of the Lactobacillus delbrueckii subsp. bulgaricus strain CHCC13995, cells derived from the growth of a single colony were inoculated anaerobically into 10 ml MRS broth containing one of the following amounts of ampicillin, 0 ng/ml, 100 ng/ml, 200 ng/ml, 300 ng/ml, 400 ng/ml, 500 ng/ml, 600 ng/ml or 700 ng/ml, and grown for at least 20 hours at 37° C. After the 20 hours of growth OD600 is measured for all samples. Typically the concentration of ampicillin that reduces the OD600 measured anaerobic growth of Lactobacillus delbrueckii subsp. bulgaricus with at least 20% as compared to the growth in MRS medium without ampicillin (i.e. with 0 ng/ml ampicillin) is higher than 300 ng/ml. Cultures where the concentration of ampicillin was 500 ng/ml were diluted and plated on MRS agar plates with no ampicillin added and then incubated anaerobically for at least 20 hours at 37° C. Colonies were then picked and screened for anaerobic growth at 37° C. in microtiter plates in the presence of 500 ng/ml ampicillin. Typically, 25% of the resulting colonies were identified as fast growers in the presence of ampicillin. These were chosen for further study. The selected ampicillin resistant mutants were further purified and tested for their ability to grow in milk. […]
compound,measurement,value
CC1(C)S[C@@H]2[C@H](NC(=O)[C@H](N)c3ccccc3)C(=O)N2[C@H]1C(=O)O [ampicillin],concentration of ampicillin that reduces the OD600 measured anaerobic growth with at least 20% as compared to the growth in MRS medium without ampicillin,higher than 300 ng/ml
